According to patent publication US12496304B2, “Selective glucocorticoid receptor modifiers for treating impaired skin wound healing” (AKRIBES BIOMEDICAL GMBH, priority 2019, dated 2025):
Like-named read-outs stand apart in the source and are kept apart here. Each block holds one compound with its values, some of them ahead of it.

Legend:
[1] = test system: primary human dermal fibroblasts (HDF); assay: Fibroblast proliferation assay (2D) in the presence of wound exudate; format: cell-based; settings: for fibroblast proliferation (2D) with wound exudate: graded concentrations
Procedure: (§1) Primary human dermal fibroblasts (HDF) were purchased from CELLnTEC, Bern. They were routinely grown in Dulbecco's modified Eagle's medium (DMEM) containing 10% FCS, 2 mM glutamine, and 100 U/ml penicillin/100 μg/ml streptomycin. Media, antibiotics, and glutamine were bought from Lonza. The cells were used at passage 5-15. Cells were trypsinized and seeded at 2500 cells/well in 30 μl into the inner wells of 384-well plates in the absence or presence of graded compound concentrations with or without different dilutions of sterile-filtered WE in medium. For control samples, 30 μl medium was added instead of specific stimuli. The outer wells were loaded with sterile water. The cells were incubated for 72 hours at 37° C.
(§2) At the end of the incubation period, supernatants were removed for the determination of IL-1β, and the cells were fixed with 4% paraformaldehyde (Morphisto) for 15 minutes at room temperature and washed 3 times with PBS. A control plate was fixed after the overnight adherence of the cells (day 1) to determine the starting cell number.
Total cellular protein was determined as a measure of cell number by staining the fixed cells with sulforhodamine B (SRB, Sigma). A 0.4% SRB solution in 1% acetic acid was added to the wells for 30 minutes. The wells were then washed with 1% acetic acid until the wash solution remained colorless. After drying, the dye was eluted with 10 mM Tris-HCl, pH8.5, and absorbance was measured either at 550 or 492 nm for lower and higher cell densities, respectively. The average absorbance of the sample representing the day 1 starting cell number was subtracted from the absorbance values of the WE-treated cells.
All experiments were carried out in triplicate for each sample and concentration, and means±standard deviation (SD) were used for the evaluation of the experiment. Results are expressed as percentage of control values for unstimulated cells.

[2] = test system: human dermal fibroblast (HDF) cells; assay: Fibroblast-derived matrix formation (FDM) assay, 3D fibroblast culture; format: cell-based; settings: for formation of fibroblast-derived matrix (3D): WE from patient #92 (FIG. 12)
Procedure: Human dermal fibroblast (HDF) cells were seeded at 1250 cells/well on day −3 into 384-well tissue culture plates, which had been pre-coated for 1 hour at 37° C. with 0.2% gelatin solution (Sigma). When the cells reached confluence (=day 0), a matrix promoting supplement (vitamin C: 2-phospho-L-ascorbic acid trisodium salt, 100 μg/ml; Sigma) was added together with test samples containing TGF-β1 or graded concentrations of compounds −/+WE as described for the HDF proliferation assay. After 4 days, medium was replaced by fresh vitamin C—and stimulus—as well as compound-containing medium, maintaining the conditions initiated on day 0. TGF-β1 was included as a positive control to promote FDM formation. After a total incubation time of 7 to 8 days, FDM production was measured in fixed cultures via SRB staining and evaluated as described above. In some cases, the experiment was stopped and evaluated already on day 4.

[3] = biological target: T1, glucocorticoid receptor (Homo sapiens, UniProt P04150); settings: for localization of the glucocorticoid receptor: 45 minutes at 37° C.
T1 sequence (P04150 1-777): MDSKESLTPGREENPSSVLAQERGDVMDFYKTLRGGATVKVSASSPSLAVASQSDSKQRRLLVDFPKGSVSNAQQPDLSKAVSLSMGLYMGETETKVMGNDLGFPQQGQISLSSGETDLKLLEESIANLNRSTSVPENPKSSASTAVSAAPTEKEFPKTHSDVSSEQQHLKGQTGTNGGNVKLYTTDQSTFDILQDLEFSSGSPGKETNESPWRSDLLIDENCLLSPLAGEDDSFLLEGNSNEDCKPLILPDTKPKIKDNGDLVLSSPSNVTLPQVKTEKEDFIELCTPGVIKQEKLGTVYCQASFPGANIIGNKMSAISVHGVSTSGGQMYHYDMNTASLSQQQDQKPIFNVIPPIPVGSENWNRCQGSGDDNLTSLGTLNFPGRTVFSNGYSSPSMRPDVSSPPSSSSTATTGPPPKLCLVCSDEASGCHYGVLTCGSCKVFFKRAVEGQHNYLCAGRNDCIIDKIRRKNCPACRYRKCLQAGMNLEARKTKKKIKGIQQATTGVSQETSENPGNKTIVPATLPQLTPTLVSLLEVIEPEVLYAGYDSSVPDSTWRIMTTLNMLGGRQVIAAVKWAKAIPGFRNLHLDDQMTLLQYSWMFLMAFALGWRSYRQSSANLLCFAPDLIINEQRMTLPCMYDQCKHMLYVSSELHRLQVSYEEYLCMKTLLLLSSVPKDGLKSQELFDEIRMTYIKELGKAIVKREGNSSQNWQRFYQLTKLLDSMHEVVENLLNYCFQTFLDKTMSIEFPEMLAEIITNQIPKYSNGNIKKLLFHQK

[4] = test system: IL-1β; assay: IL-1β secretion into the supernatant in the fibroblast proliferation assay (ELISA); format: cell-based, human; settings: graded concentrations
Procedure: as §1, §2
IL-1β levels were determined with a commercial ELISA kit. The amount of IL-1β contained in the wound exudate added to the cells was subtracted from the total IL-B in the supernatants in order to determine the cytokine secreted by the cells.

localization of the glucocorticoid receptor ([3]; 0.1 nM): N/C | localization of the glucocorticoid receptor ([3]; 1 nM): N | localization of the glucocorticoid receptor ([3]; 100 nM): N | localization of the glucocorticoid receptor ([3]; 10 nm): N
Compound: C[C@H](NC(=O)C(C)(F)F)[C@H](Oc1ccc2c(cnn2-c2cccc(C(=O)NC3CCOC3)c2)c1)c1ccc2c(c1)OCCO2 (stereo partly drawn) [AZD7594, 3-(5-((1R,2S)-2-(2,2-difluoropropanamido)-1-(2,3-dihydrobenzo[b][1,4]dioxin-6-yl)propoxy)-1H-indazol-1-yl)-N-(tetrahydrofuran-3-yl)benzamide]
fibroblast proliferation, % proliferation of respective WE control ([1]; 1 μM, WE-02, WE control set to 100%): 196% | fibroblast proliferation, % proliferation of respective WE control ([1]; 1 μM, WE-03, WE control set to 100%): 161% | fibroblast proliferation, % proliferation of respective WE control ([1]; 1 μM, WE-04, WE control set to 100%): 1139% | fibroblast proliferation, % proliferation of respective WE control ([1]; 1 μM, WE-05, WE control set to 100%): 203% | fibroblast proliferation, % proliferation of respective WE control ([1]; 1 μM, WE-37, WE control set to 100%): 171% | fibroblast proliferation, % proliferation of respective WE control ([1]; 1 μM, WE-77, WE control set to 100%): 128% | efficacy on fibroblast proliferation compared with mapracorat ([1]; 1 μM, plurality of different wound exudates): comparable to the effect of mapracorat | formation of fibroblast-derived matrix (3D) [2]: most active of the SEGRM tested in 3D culture

localization of the glucocorticoid receptor ([3]; 1 nM): N/C | localization of the glucocorticoid receptor ([3]; 100 nM): N | localization of the glucocorticoid receptor ([3]; 10 nm): N
Compound: CCOC[C@]12Cc3cnn(-c4ccc(F)cc4)c3C=C1CCN(S(=O)(=O)c1ccc(C(F)(F)F)cc1)C2 [CORT108297]

Compound: C[C@H]1C[C@H]2[C@@H]3CCC4=CC(=O)C=C[C@]4(C)[C@@]3(F)[C@@H](O)C[C@]2(C)[C@@]1(O)C(=O)CCl [Clobetasol]
glucocorticoid receptor localization, positive control [3]: shows nuclear staining

Compound: Cc1noc(=O)c2ccc(NC(=O)C(O)(CC(C)(C)c3cccc4c3OCC4)C(F)(F)F)cc12 (stereo not shown) [ZK216348]
rescue of fibroblasts in 2D culture from wound-exudate-induced inhibition of proliferation, compared with HY14234 ([1]; FIGS. 9A, 10A, 11A): less efficient | fibroblast proliferation (2D) with wound exudate ([1]; WE-1 (FIG. 2A, 9A)): dose-dependent partial reversion of the wound exudate (WE)-induced inhibition of fibroblast proliferation | fibroblast proliferation (2D) with wound exudate ([1]; WE-2 (FIG. 10A)): dose-dependently reversed inhibition of wound exudate (WE)-induced fibroblast proliferation | fibroblast proliferation (2D) with wound exudate ([1]; WE-3 (FIG. 11A)): dose-dependently reversed inhibition of wound exudate (WE)-induced fibroblast proliferation | IL-1β secretion into the supernatant ([4]; WE-1 (FIG. 2B, 9B)): inhibited IL-1β secretion at the same concentrations | IL-1β secretion into the supernatant ([4]; WE-2 (FIG. 10B)): inhibition of IL-1β secretion was negligible | IL-1β secretion into the supernatant ([4]; WE-3 (FIG. 11B)): inhibited IL-1β secretion at the same concentrations | formation of fibroblast-derived matrix (3D) [2]: positive effect

Compound: CC#C[C@]1(O)CC[C@H]2[C@@H]3CCC4=CC(=O)CCC4=C3[C@@H](c3ccc(N(C)C)cc3)C[C@@]21C [mifepristone]
effect on the matrix-promoting activity of BI-653048 ([2]; mifepristone 1 μM, WE-1 (FIG. 4)): completely abrogated
